≈ marks a conversion by molar mass, not a printed value. Calls of active or inactive are those of the source. No cut-off for these calls is given here.
Experiments:
[1] = tested on: Staphylococcus aureus; assay: Antibacterial activity against community-associated methicillin-resistant Staphylococcus aureus USA300 SF8300 assessed as inhibition of bacterial growth by measuring zone of inhibition at 30 ug incubated for 18 to 20 hrs by CLSI based disk diffusion analysis; assay type: functional; details: time 18-20 hrs, read-out: DIZ
[2] = tested on: Staphylococcus aureus; assay: Antibacterial activity against methicillin-susceptible Staphylococcus aureus ATCC 25923 assessed as inhibition of bacterial growth by measuring zone of inhibition at 30 ug incubated for 18 to 20 hrs by CLSI based disk diffusion analysis; assay type: functional; details: time 18-20 hrs, read-out: DIZ
[3] = tested on: Pseudomonas aeruginosa; assay: Antibacterial activity against Pseudomonas aeruginosa assessed as inhibition of bacterial growth by measuring zone of inhibition at 30 ug incubated for 18 to 20 hrs by CLSI based disk diffusion analysis; assay type: functional; details: time 18-20 hrs, read-out: DIZ
[4] = tested on: Staphylococcus aureus; assay: Antibacterial activity against methicillin-susceptible Staphylococcus aureus ATCC 29213 assessed as inhibition of bacterial growth incubated for 18 to 20 hrs by CLSI based microdilution susceptibility analysis; assay type: functional; details: time 18-20 hrs
[5] = tested on: Pseudomonas aeruginosa; assay: Antibacterial activity against Pseudomonas aeruginosa assessed as inhibition of bacterial growth incubated for 18 to 20 hrs by CLSI based microdilution susceptibility analysis; assay type: functional; details: time 18-20 hrs
[6] = tested on: Staphylococcus aureus; assay: Bactericidal activity against methicillin-susceptible Staphylococcus aureus ATCC 29213 assessed as inhibition of bacterial growth incubated for 18 to 20 hrs by CLSI based microdilution susceptibility analysis; assay type: functional; details: time 18-20 hrs
[7] = tested on: Pseudomonas aeruginosa; assay: Bactericidal activity against Pseudomonas aeruginosa assessed as inhibition of bacterial growth incubated for 18 to 20 hrs by CLSI based microdilution susceptibility analysis; assay type: functional; details: time 18-20 hrs
[8] = tested on: Staphylococcus aureus; assay: Inhibition of methicillin-susceptible Staphylococcus aureus ATCC 29213 bacterial cell adhesion to fibronectin at 0.1 mg/ml followed by compound addition on fibronectin precoated plate measured after 2 hrs by crystal violet dye based analysis; assay type: functional
[9] = tested on: Staphylococcus aureus; assay: Antibacterial activity against community-associated methicillin-resistant Staphylococcus aureus USA300 SF8300 assessed as inhibition of bacterial growth incubated for 18 to 20 hrs by CLSI based microdilution susceptibility analysis; assay type: functional; details: time 18-20 hrs
[10] = tested on: Staphylococcus aureus; assay: Bactericidal activity against community-associated methicillin-resistant Staphylococcus aureus USA300 SF8300 assessed as inhibition of bacterial growth incubated for 18 to 20 hrs by CLSI based microdilution susceptibility analysis; assay type: functional; details: time 18-20 hrs
[11] = biological target: Albumin (Homo sapiens, UniProt P02768); assay: Binding affinity to cysteine residue of human serum albumin assessed as conjugation of compound with protein at 1:1 compound to human serum albumin concentration incubated for 2 hr by LC-MS/MS analysis; assay type: cell-free
[12] = biological target: T1, Sortase A (Staphylococcus aureus, UniProt Q9S446); assay: Inhibition of Staphylococcus aureus sortase A using Abz/Dnp fluorescent peptide as a substrate measured after 30 mins by fluorescent based analysis
T1 sequence (Q9S446 whole entry): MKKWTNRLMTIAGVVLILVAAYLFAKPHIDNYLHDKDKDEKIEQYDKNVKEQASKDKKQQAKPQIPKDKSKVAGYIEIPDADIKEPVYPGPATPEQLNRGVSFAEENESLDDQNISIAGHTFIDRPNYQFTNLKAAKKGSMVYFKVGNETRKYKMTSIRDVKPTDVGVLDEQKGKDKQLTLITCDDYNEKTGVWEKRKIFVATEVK

Albumin, sequence (P02768 whole entry): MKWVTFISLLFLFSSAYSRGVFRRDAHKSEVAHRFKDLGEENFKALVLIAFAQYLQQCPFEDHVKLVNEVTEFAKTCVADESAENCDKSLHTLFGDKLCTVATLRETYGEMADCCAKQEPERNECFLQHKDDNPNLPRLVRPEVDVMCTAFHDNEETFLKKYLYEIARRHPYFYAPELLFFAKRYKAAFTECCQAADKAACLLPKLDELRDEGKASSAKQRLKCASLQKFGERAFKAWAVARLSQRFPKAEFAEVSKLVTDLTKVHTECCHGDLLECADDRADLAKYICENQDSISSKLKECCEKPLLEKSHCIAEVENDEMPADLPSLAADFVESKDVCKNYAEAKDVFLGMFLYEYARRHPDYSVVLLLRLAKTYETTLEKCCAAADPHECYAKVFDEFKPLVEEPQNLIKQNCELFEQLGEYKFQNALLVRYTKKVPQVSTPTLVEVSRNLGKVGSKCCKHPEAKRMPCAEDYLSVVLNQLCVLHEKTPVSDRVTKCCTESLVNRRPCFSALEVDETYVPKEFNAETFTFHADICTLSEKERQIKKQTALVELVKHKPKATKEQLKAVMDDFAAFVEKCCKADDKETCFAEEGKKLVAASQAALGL

Row | SMILES | zone of inhibition at 30 µg/disc [1] [mm] | zone of inhibition at 30 µg/disc [2] [mm] | zone of inhibition at 30 µg/disc [3] [mm] | MIC [4] [µg/mL] | MIC [5] [µg/mL] | MBC [6] [µg/mL] | MBC [7] [µg/mL] | inhibition [8] | MIC [9] [µg/mL] | MBC [10] [µg/mL] | Activity [11] | IC50 [12] [µM]
1 | N#C/C=C\S(=O)(=O)c1ccc(Cl)cc1 | 6 | 20 | 16.3 | 7.5 (≈ 32.9 µM) | 60 (≈ 264 µM) | 60 (≈ 264 µM) | 60 (≈ 264 µM) | Active | – | – | – | –
2 | C/C(=C/C#N)S(=O)(=O)c1ccc(C)cc1 | 23.6 | 23.6 | 6 | 7.5 (≈ 33.9 µM) | – | 7.5 (≈ 33.9 µM) | – | – | 7.5 (≈ 33.9 µM) | 15 (≈ 67.8 µM) | – | –
3 | COC(=O)/C(C)=C/S(=O)(=O)c1ccc(C)cc1 | 6 | 6 | 6 | – | – | – | – | – | – | – | – | –
4 | CCCCOC(=O)/C=C/S(=O)(=O)c1ccc(C)cc1 | 15.1 | 13.9 | 6 | 7.5 (≈ 26.6 µM) | – | 120 (≈ 425 µM) | – | – | 60 (≈ 212 µM) | > 120 | – | –
5 | COc1ccc(S(=O)(=O)/C=C\C#N)cc1 | 24.7 | 24.5 | 14.2 | 3.75 (≈ 16.8 µM) | 120 (≈ 538 µM) | 60 (≈ 269 µM) | 120 (≈ 538 µM) | Active | 15 (≈ 67.2 µM) | 60 (≈ 269 µM) | – | –
6 | Cc1ccc(/C=C/S(=O)(=O)c2ccc(C)cc2)cc1 | 6 | 6 | 6 | – | – | – | – | – | – | – | – | –
7 | N#C/C=C\S(=O)(=O)c1ccc(Br)cc1 | 23.4 | 22.6 | 13.8 | 30 (≈ 110 µM) | 60 (≈ 220 µM) | 30 (≈ 110 µM) | > 120 | Active | 60 (≈ 220 µM) | 120 (≈ 441 µM) | – | –
8 | Cc1ccc(S(=O)(=O)/C=C/CCCBr)cc1 | 6 | 6 | 6 | – | – | – | – | – | – | – | – | –
9 | Cc1ccc(S(=O)(=O)/C=C/Cc2ccccc2)cc1 | 6 | 6 | 6 | – | – | – | – | – | – | – | – | –
10 | N#C/C=C/S(=O)(=O)c1ccc(Cl)cc1 | 25.5 | 22.8 | 13.9 | 1.88 (≈ 8.24 µM) | 60 (≈ 264 µM) | 15 (≈ 65.9 µM) | 120 (≈ 527 µM) | Active | 7.5 (≈ 32.9 µM) | 60 (≈ 264 µM) | – | –
11 | Cc1ccc(S(=O)(=O)/C=C/c2ccc(Cl)cc2)cc1 | 6 | 6 | 6 | – | – | – | – | – | – | – | – | –
12 | Cc1ccc(S(=O)(=O)C/C=C\Oc2ccccc2)cc1 | 6 | 6 | 6 | – | – | – | – | – | – | – | – | –
13 | COc1ccc(S(=O)(=O)/C=C/C#N)cc1 | 25.9 | 26.9 | 13.3 | 1.88 (≈ 8.4 µM) | > 120 | 30 (≈ 134 µM) | > 120 | Active | 3.75 (≈ 16.8 µM) | 30 (≈ 134 µM) | – | –
14 | Cc1ccc(S(=O)(=O)/C=C/COCc2ccccc2)cc1 | 6 | 8.3 | 6 | > 120 | – | > 120 | – | – | – | – | – | –
15 | COC(=O)/C=C/S(=O)(=O)c1ccc(C)cc1 | 18.7 | 20.6 | 10.6 | 7.5 (≈ 31.2 µM) | > 120 | 120 (≈ 499 µM) | > 120 | – | 15 (≈ 62.4 µM) | 120 (≈ 499 µM) | – | –
16 | CCS(=O)(=O)c1ccc(C)cc1 | 6 | 6 | 6 | – | – | – | – | – | – | – | – | –
17 | N#C/C=C\S(=O)(=O)c1ccccc1 | 6 | 22.3 | 14.1 | 15 (≈ 77.6 µM) | 60 (≈ 311 µM) | 30 (≈ 155 µM) | 120 (≈ 621 µM) | Active | – | – | – | –
18 | N#C/C=C/S(=O)(=O)c1ccc([N+](=O)[O-])cc1 | 6 | 21.1 | 13.1 | 30 (≈ 126 µM) | 120 (≈ 504 µM) | 60 (≈ 252 µM) | 120 (≈ 504 µM) | Active | – | – | – | –
19 | C/C(=C\C#N)S(=O)(=O)c1ccc(C)cc1 | 6 | 16.2 | 6 | 60 (≈ 271 µM) | – | 60 (≈ 271 µM) | – | – | – | – | – | –
20 | O=[N+]([O-])c1ccc(S(=O)(=O)/C=C/CCCBr)cc1 | 6 | 6 | 6 | – | – | – | – | – | – | – | – | –
21 | Cc1ccc(S(=O)(=O)/C=C/C(N)=O)cc1 | 6 | 22 | 6 | 60 (≈ 266 µM) | – | 60 (≈ 266 µM) | – | – | – | – | – | –
22 | O=S(=O)(/C=C/CCCBr)c1ccc(Br)cc1 | 6 | 6 | 6 | – | – | – | – | – | – | – | – | –
23 | Cc1ccc(S(=O)(=O)/C=C/C(=O)O)cc1 | 6 | 9.94 | 6 | > 120 | – | > 120 | – | – | – | – | – | –
24 | N#C/C=C/S(=O)(=O)c1ccccc1 | 25.2 | 22.6 | 14.1 | 1.88 (≈ 9.7 µM) | 60 (≈ 311 µM) | 30 (≈ 155 µM) | 60 (≈ 311 µM) | Active | 7.5 (≈ 38.8 µM) | 60 (≈ 311 µM) | – | –
25 | Cc1ccc(S(=O)(=O)/C=C/C(=O)OC(C)(C)C)cc1 | 16.7 | 14.9 | 6 | 7.5 (≈ 26.6 µM) | – | 120 (≈ 425 µM) | – | – | 30 (≈ 106 µM) | 60 (≈ 212 µM) | – | –
26 | Cc1ccc(S(=O)(=O)/C=C/C#N)cc1 | 27.7 | 28 | 12.9 | 1.88 (≈ 9.05 µM) | 120 (≈ 579 µM) | 15 (≈ 72.4 µM) | > 120 | Active | 7.5 (≈ 36.2 µM) | 60 (≈ 289 µM) | Active | 129
27 | C/C(C#N)=C\S(=O)(=O)c1ccc(C)cc1 | 11.3 | 6 | 6 | – | – | – | – | – | 30 (≈ 136 µM) | 120 (≈ 542 µM) | – | –
28 | N#C/C=C/S(=O)(=O)c1ccc(Br)cc1 | 25.7 | 24.7 | 12.9 | 7.5 (≈ 27.6 µM) | 120 (≈ 441 µM) | 15 (≈ 55.1 µM) | > 120 | Active | 15 (≈ 55.1 µM) | 60 (≈ 220 µM) | – | –

Reference: ChEMBL document CHEMBL5143612, “Antibacterial activity evaluation of vinyl sulfones against global predominant methicillin-resistant Staphylococcus aureus USA300” (Bioorg Med Chem Lett, 2022)
